For series [1], the system named is Male Sprague Dawley rats. The experiment in a line: Antinociceptive tolerance (tail flick after acute morphine) in rats with chronic s.c. morphine or saline infusion. It is filed as in vivo, rat. The settings on record: for development of morphine antinociceptive tolerance: daily i.th for 6 days with s.c. morphine infusion, Myr 0.3, FB1 1, D609 1, DMS 0.3, SK-1 0.3 μM/day; for effect on antinociceptive responses to acute morphine: drug alone vs Veh-Sal; for effect on antinociceptive responses to acute morphine / % MPE (Tail-flick): day 6; for % MPE (Tail-flick): drug given alone i.th daily over 6 days to saline-infused rats, response to acute morphine, mean ± SEM; for effect on tail flick latencies when given alone: daily i.th 3 μM/day, saline-infused rats, vs vehicle group. On the procedure:
(§1) Osmotic pump implantation. Rats, under light isoflurane anesthesia, were subcutaneously implanted (in the interscapular region) with osmotic pumps (Alzet 2001; Alza, Mountain View Calif.), to deliver saline at 1 μl/h or morphine at 75 μg μl^−1h^−1 over 7 days as described (Vera-Portocarrero et al., 2006). Minipumps were filled according to manufacturer's specifications. The use of the osmotic pump ensures a continuous delivery of morphine avoiding intermittent periods of withdrawal. The integrity of the pump delivery system was reexamined at the end of each experiment when the spinal cords were harvested.
(§2) Drug administration. The test substances fumonisin B1 (FB 1, Sigma-Aldrich, St. Louis, Mo.), myriocin (Myr Sigma-Aldrich, St. Louis, Mo.), D609 (Tricyclodecan-9-ylxanthogenate, K; Calbiochem, San Diego, Calif.), DMS (N,N-Dimethylsphingosine, Caymen Chemical, Ann Arbor, Mich.), SK-I 2-(p-hydroxyanilino)-4-(p-chlorophenyl) thiazole, Calbiochem, San Diego, Calif.) or their vehicle (0.5% in DMSO) were delivered by intrathecal (i.th) injection in rats chronically implanted with i.th cannulas as described previously (Storkson et al., 1996). Test substances were injected i.th once a day for 6 days in a total volume of 10 μl followed by a 10 μl flush with sterile physiological saline.
After the Hargreave's test, the development of antinociceptive tolerance was determined in all animals as follows. Acute nociception. The tail flick test which measures, withdrawal latencies of the tail from a noxious radiant heat source was used to measure thermal nociceptive sensitivity with baseline latencies of 4-5 sec and it cut-off time of 10 sec to prevent tissue injury (D'Amour, 1941). […]. Test substances or vehicle were given on day 0-6 after completion of the behavioral tests. At the required time points, after the behavioral tests, spinal cord tissues from the lumbar, enlargement segment of the spinal cord (L4-L6) and dorsal horn tissues were removed and tissues processed for immunohistochemical, Western blot and biochemical analysis. All experiments were conducted with the experimenters blinded to treatment conditions. […]

For series [2], the system named is S1P. Description: S1P levels in dorsal horn tissue by ELISA. It counts as in vivo, rat. The conditions noted are these: for morphine-induced increased production of S1P in dorsal horn tissues: sc. On the technique in general: An ELISA detects its analyte on a solid surface through an enzyme-linked reagent.
Series [3] has as its system Male Sprague Dawley rats. Description: Thermal hyperalgesia (Hargreaves paw-withdrawal latency) in rats with chronic s.c. morphine or saline infusion. It is filed as in vivo, rat. The conditions noted are these: for development of morphine-induced hyperalgesia: daily i.th for 6 days with s.c. morphine infusion, Myr 0.3, FB1 1, D609 1, DMS 0.3, SK-1 0.3 μM/day; for effect on paw-withdrawal latencies: drug alone vs Veh-Sal; for effect on paw-withdrawal latencies / Paw-Withdrawal Latency: day 6; for Paw-Withdrawal Latency: drug given alone i.th daily over 6 days to saline-infused rats, mean ± SEM; for effect on hindpaw withdrawal latencies when given alone: daily i.th 3 μM/day, saline-infused rats, vs vehicle group. The procedure:
as §1, §2
Behavioral tests. Thermal hyperalgesia. The method of Hargreaves and colleagues was used to assess changes in baseline nociceptive responses to a thermal nociceptive stimulus (Hargreaves et al., 1988). Animals were allowed to acclimate within a Plexiglas enclosure on a clear glass plate in a quiet testing room. A radiant heat source is focused onto the plantar aspect of the hindpaw with baseline latencies of 18-20 sec. and a maximal cutoff time of 20 sec to prevent tissue damage. The paw-withdrawal latency is determined by a motion detector activated by the paw withdrawal, stopping a timer. Foot withdrawal latencies were taken on the day before implantation of the minipumps (baseline) and subsequently on days 1, 3 and 6 of the experimental period to determine whether morphine-tolerant animals develop increased sensitivity to thermal stimulation. A significant (P<0.05) reduction in paw-withdrawal latency over time and before implantation of the osmotic minipump is characterized as thermal hyperalgesia. […]

In series [4] the target is S1P5 (Homo sapiens, UniProt Q9H228). The conditions noted are these: relative to S1P1; cited from earlier work.
S1P5, sequence (Q9H228 whole entry, species assumed): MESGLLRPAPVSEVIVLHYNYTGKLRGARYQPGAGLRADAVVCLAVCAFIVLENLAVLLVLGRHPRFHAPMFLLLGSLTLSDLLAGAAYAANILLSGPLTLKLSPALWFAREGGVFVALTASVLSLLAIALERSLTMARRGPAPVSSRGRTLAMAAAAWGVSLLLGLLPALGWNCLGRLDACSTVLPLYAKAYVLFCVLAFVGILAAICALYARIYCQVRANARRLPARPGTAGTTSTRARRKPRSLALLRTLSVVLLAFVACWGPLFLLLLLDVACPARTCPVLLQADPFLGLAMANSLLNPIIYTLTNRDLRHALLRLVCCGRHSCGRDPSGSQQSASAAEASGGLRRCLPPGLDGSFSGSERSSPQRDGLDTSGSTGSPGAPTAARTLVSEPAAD
Series [5] concerns the target S1P2 (Homo sapiens, UniProt O95136). The settings on record: cited from earlier work.
The test system of series [6] is other known S1P receptor subtypes. The conditions noted are these: at doses as high as 10-20 μM; cited from earlier work.
For series [7], the system named is Male Sprague Dawley rats. The experiment in a line: Paclitaxel-induced neuropathic pain (mechano-allodynia, mechano-hyperalgesia). It is filed as in vivo, rat. The procedure:
Paclitaxel-Induced: Paclitaxcel-induced pain was studied by means of the well-characterized rat model developed by Bennett in which repeated intraperitoneal (i.p) injections of low doses of paclitaxel are administered to induce neuropathic pain (methano-allodynia and mechano-hyperalgesia) with little systemic toxicity or motor impairment (Polomano et al., Pain 94, 293-304 (2001)). The behavioral responses last for several weeks to months, thus modeling painful neuropathies in patients. Paclitaxel (Parentapharm. Yardley, Pa.) or its vehicle (Cremophor EL and 95% dehydrated ethanol in 1:1 ratio) was injected i.p in rats on four alternate days (day 0, 2, 4 and 6 with a final cumulative dose of 4 mg/kg). MnTE-2-PyP^5+, W146 (source), W140 (source) or their vehicle were delivered by intrathecal (i.th) injection (total volume of 10 μl followed by a 10 μl flush with sterile physiological saline) in rats chronically implanted with i.th cannulas using the L5/L6 lumbar approach, as described previously and Commonly used for drug delivery (Ramos et al. Neuroscience 169, 1888-1900 (2010); Schoeniger-Skinner, Brain Behav Immun 21, 660-667 (2007); Doyle, et al. Neurosci Lett (2010)). Drugs were injected 30 min before paclitaxel or its vehicle from day (D) 0 and then daily up to D15. In another set of experiments, Fingolimod (Fingolimod, Cayman Chemicals, Ann Arbor, Mich.) or its vehicle (1.2% ethanol in saline) were given by intraperitoneal injection (i.p., 0.2 ml) from D0 to D15; behavioral testing was carried out on D0 and at baseline and subsequently on D12, D16 and D22.
Behavioral testing: Baseline values were taken from all rats on day 0 Baseline. Drugs or vehicles under investigation were then given, followed 30 min later by a chemotherapeutic or vehicle. Behavioral testing was subsequently carried out on D12, D16 and D22.
Mechano-Allodynia and mechano-hyperalgesia: Mechanical withdrawal thresholds were assessed with an automated electronic version of the von Frey test (dynamic plantar aesthesiometer, model 37450; Ugo Basile, Milan, Italy). Each rat was placed in a Plexiglas chamber (28×40×35-cm, wire mesh floor) and allowed to acclimate for fifteen minutes. […] The pressure evoking a clear voluntary hind-paw withdrawal response (normally 40-45 g) was recorded automatically and taken as the mechanical threshold index. Mechanical threshold was assessed three times at each time point to yield a mean value, which is reported as mean absolute threshold (grams, g). […] Mechanical-hyperalgesia was assessed by the Randall and Sellitto paw pressure test 6 using an Ugo-Basile analgesiometer, which applies a linearly increasing mechanical force to the dorsum of the rat's hind paw. […]

The test system of series [8] is rats. The experiment in a line: Ceramide-induced thermal hyperalgesia (intraplantar). It counts as in vivo, rat.
Series [9] addresses murine S1P1 subtype (Mus musculus, UniProt O08530). The conditions noted are these: cited from earlier work.
Series [10] addresses S1P1 subtype, human receptor (Homo sapiens, UniProt P21453). The conditions noted are these: GTP-γS binding assay; cited from earlier work. For orientation: GTPγS resists hydrolysis and so accumulates on activated G proteins.
The test system of series [11] is rats. Description: Carrageenan-induced thermal hyperalgesia. It counts as in vivo, rat. The conditions noted are these: W146, FIG. 14.
The test system of series [12] is rats. The conditions noted are these: rat, in vivo.
Experimental: (§3) Tail flick latency (s) was tested before and 30 min after morphine (FIG. 26).
Series [13] is described as follows: S1P-induced thermal hyperalgesia (intraplantar). It is filed as in vivo. The conditions noted are these: intraplantar W146 15 minutes before intraplantar S1P.
Series [14] deals with rats. Description: Antinociceptive response to acute morphine (tail flick latency). It counts as in vivo, rat. The conditions noted are these: W146 1 pM i.th 15 min before morphine 1, 3 or 6 mg/kg i.p; tail flick 30 min after morphine. (In hot-plate and tail-flick tests a longer latency is read as antinociception.)
Experimental: Acute nociception. The tail flick test, which measures withdrawal latencies of the tail from a noxious radiant heat source, was used to measure thermal nociceptive sensitivity with baseline latencies of 2-3 sec and a cut-off time of 10 sec to prevent tissue injury (D'Amour, J Pharmacol Exp Ther 72, 74-79 (1941)). […] Test substances or vehicle were given on day 0 through 6 after completion of the behavioral tests.
as §3
The mark [15] stands for this setting: 3 μM/day i.th co-administered with morphine infusion.
Where [16] appears, read: daily intrathecal, W146 0.3-3 μM/day, W140 3 μM/day.

A value given as a limit tells only on which side of the number the result lay.

S1P2, sequence (O95136 whole entry, species assumed): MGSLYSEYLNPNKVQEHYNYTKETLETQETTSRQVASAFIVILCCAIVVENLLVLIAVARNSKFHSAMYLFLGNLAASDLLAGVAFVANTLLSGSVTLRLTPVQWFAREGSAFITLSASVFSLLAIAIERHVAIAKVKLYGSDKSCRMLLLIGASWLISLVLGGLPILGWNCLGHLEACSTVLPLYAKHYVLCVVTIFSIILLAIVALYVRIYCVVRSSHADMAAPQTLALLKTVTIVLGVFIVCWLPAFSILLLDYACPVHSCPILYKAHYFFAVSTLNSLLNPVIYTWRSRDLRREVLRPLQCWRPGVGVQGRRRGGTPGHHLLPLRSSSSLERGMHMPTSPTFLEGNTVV
S1P1 subtype, human receptor, sequence (P21453 whole entry): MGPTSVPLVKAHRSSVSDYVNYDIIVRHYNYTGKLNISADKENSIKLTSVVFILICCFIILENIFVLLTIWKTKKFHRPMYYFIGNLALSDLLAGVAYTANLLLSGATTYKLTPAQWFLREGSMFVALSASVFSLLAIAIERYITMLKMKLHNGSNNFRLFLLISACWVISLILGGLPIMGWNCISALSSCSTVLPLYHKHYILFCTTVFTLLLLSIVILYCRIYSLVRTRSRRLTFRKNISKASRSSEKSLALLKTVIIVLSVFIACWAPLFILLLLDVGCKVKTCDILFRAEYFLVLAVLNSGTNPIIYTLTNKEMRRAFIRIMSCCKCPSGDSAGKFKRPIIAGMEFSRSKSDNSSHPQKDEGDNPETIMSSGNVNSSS
murine S1P1 subtype, sequence (O08530 whole entry): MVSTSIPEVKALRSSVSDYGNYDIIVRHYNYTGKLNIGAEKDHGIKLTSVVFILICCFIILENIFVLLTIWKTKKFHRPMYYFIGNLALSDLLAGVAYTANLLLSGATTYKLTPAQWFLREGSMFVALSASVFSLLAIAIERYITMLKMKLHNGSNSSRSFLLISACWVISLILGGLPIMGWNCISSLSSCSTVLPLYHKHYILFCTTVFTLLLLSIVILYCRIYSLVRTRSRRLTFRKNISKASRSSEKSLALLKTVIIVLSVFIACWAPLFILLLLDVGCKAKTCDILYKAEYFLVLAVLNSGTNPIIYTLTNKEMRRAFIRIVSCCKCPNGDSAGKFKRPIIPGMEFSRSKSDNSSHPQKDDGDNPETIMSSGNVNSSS

With `S=C([S-])OC1CC2CC1C1CCCC21.[K+]` (stereo not drawn) [D609, Tricyclodecan-9-ylxanthogenate, K], in series [1], the “development of morphine antinociceptive tolerance” value is recorded as “blocked”, the “effect on antinociceptive responses to acute morphine” value (“effect on antinociceptive responses” for short) is reported as “did not affect” and the “% MPE (Tail-flick)” value was found to be 92 ± 3.0%. In series [2] (rat, in vivo), the “S1P (pg/mg tissue)” value came to 1.5 ± 0.06 pg/mg tissue, the “effect on S1P levels in spinal cord tissues” value (“effect on S1P levels” below) is “did not affect” and the “morphine-induced increased production of S1P in dorsal horn tissues” value (from here on “morphine-induced increased production”) was “blocked”. Moreover, in series [3], the “development of morphine-induced hyperalgesia” value was “blocked”, the “effect on paw-withdrawal latencies” value was “did not affect” and the “Paw-Withdrawal Latency” value amounted to 19 ± 0.7 s.
Take `CCCC[C@@H](C)[C@@H](OC(=O)C[C@@H](CC(=O)O)C(=O)O)[C@H](C[C@@H](C)C[C@H](O)CCCC[C@@H](O)C[C@H](O)[C@H](C)N)OC(=O)C[C@@H](CC(=O)O)C(=O)O` [FB1, fumonisin B1]: in series [1], the “development of morphine antinociceptive tolerance” value is reported as “blocked”, the “effect on antinociceptive responses” value was “did not affect” and the “% MPE (Tail-flick)” value came out at 92 ± 3.2%. In series [2] (rat, in vivo), the “S1P (pg/mg tissue)” value is 1.4 ± 0.06 pg/mg tissue, the “effect on S1P levels” value is “did not affect” and the “morphine-induced increased production” value is listed as “blocked”. In addition, in series [3], the “development of morphine-induced hyperalgesia” value is on record as “blocked”, the “effect on paw-withdrawal latencies” value is reported as “did not affect” and the “Paw-Withdrawal Latency” value turned out to be 19 ± 0.8 s.
As for `CCCCCCCCc1ccc(CC[C@](N)(CO)COP(=O)(O)O)cc1` [Fingolimod-P], the “binding affinity for S1P5” value in [4] is on record as “slightly lower affinity”. Besides, in series [5], the “binding affinity for S1P2” value is “no reported affinity”.
Regarding `CCCCCCC(=O)CCCCCC/C=C/C[C@@H](O)[C@H](O)[C@@](N)(CO)C(=O)O` [Myr, myriocin], in series [1], the “development of morphine antinociceptive tolerance” value is reported as “blocked”, the “effect on antinociceptive responses” value was “did not affect” and the “% MPE (Tail-flick)” value stood at 91 ± 3.0%. For the same molecule, in [2] (drug alone vs Veh-Sal, day 6), the “effect on S1P levels” value is “did not affect”. In series [2] (rat, in vivo), the “S1P (pg/mg tissue)” value is listed as 1.2 ± 0.05 pg/mg tissue and the “morphine-induced increased production” value is listed as “blocked”. Moreover, in [3], the “development of morphine-induced hyperalgesia” value is “blocked”, the “effect on paw-withdrawal latencies” value is recorded as “did not affect” and the “Paw-Withdrawal Latency” value came out at 19 ± 0.5 s.
Consider `CCCCCCc1cccc(NC(=O)[C@@H](N)CCP(=O)(O)O)c1` [W140], for which, in series [1], the “effect on tail flick latencies when given alone” value is “had no effect”. The “effect on hindpaw withdrawal latencies when given alone” value in [3] is on record as “had no effect”.
On to `CCCCCCc1cccc(NC(=O)[C@H](N)CCP(=O)(O)O)c1` [W146], for which the “block of development of antinociceptive tolerance” value in [1] (setting [15]) is reported as more than 90%. Moreover, the “effect on tail flick latencies when given alone” value in series [1] is listed as “had no effect”. In series [6], the “antagonistic or agonistic activity against other S1P receptor subtypes” value is “No-antagonistic (or agonistic) activity”. In [7] (W146 3 μM/day, highest dose tested), the “baseline withdrawal thresholds when given alone” value is on record as “did not affect”. In addition, in series [7] (setting [16]), the “development of paclitaxel-induced mechano-allodynia” value is “attenuated in a dose-dependent manner” and the “development of paclitaxel-induced mechano-hyperalgesia” value is “attenuated in a dose-dependent manner”. For the same molecule, the “reversal of Paclitaxel-induced neuropathic pain” value in series [7] (given i.p on day 16, behavioral testing 60 minutes later) was “reverses”. For the same molecule, in series [8], the “effect when given alone (no ceramide)” value is reported as “had no effect”. For the same molecule, the ceramide-induced thermal hyperalgesia result in series [8] (LT1002 242 μg, LT1017 286 μg, W146 0.3, 0.6 or 1.2 μg, W140 1.2 μg) was “inhibited”. For the same molecule, in [9], the “potency at the murine S1P1 subtype relative to human” value is listed as “equipotency”. Moreover, the inhibitory constant (Ki) (usually a measure of affinity in units of concentration, obtained from inhibition or displacement) in series [10] is approximately 0.08 µM. Moreover, the carrageenan-induced hyperalgesia entry in [11] is on record as “blocks”. For the same molecule, in [3] (setting [15]), the “block of development of thermal hyperalgesia” value is listed as more than 90%. The “effect on hindpaw withdrawal latencies when given alone” value in series [3] is on record as “had no effect”. For the same molecule, the observable side effects entry in series [12] is listed as “No observable side effects”. The “development of S1P-induced thermal hyperalgesia” value in [13] is reported as “blocked”. The “effect on dose-response to acute morphine” value in series [14] is recorded as “did not modify”.

The values are drawn from US8945549B2, “Methods of treating antinociceptive tolerance” (Saint Louis University, priority 2010, dated 2015).
